Values quoted from earlier work in patent US20200360276A1 (Aerovate Therapeutics, Inc., priority 2019, published 2020).

What was measured:
[1] = relative to imatinib parent compound
[2] = relative to imatinib parent compound; remark: listed apart in the source
[3] = test system: platelet-derived growth factor receptor (PDGFR)
[4] = aqueous solution, dependence on pH

## Cc1ccc(NC(=O)c2ccc(CN3CCNCC3)cc2)cc1Nc1nccc(-c2cccnc2)n1 [N-desmethyl imatinib]
[1]
  potency: same potency as the imatinib parent compound
[2]
  half-life: increased half-life relative to the parent imatinib compound
[3]
  inhibition of PDGFR: potent inhibitor
[4]
  solubility: increases as the pH drops
